The target of the assay is T1, SMARCA2 (Homo sapiens, UniProt P51531).
T1 construct: endogenous in cells; host or cells: HT1080 (CRISPR HiBiT knock-in clone, generated in house)
In words: SMARCA2 HiBiT degradation assay (cellular). In kind it is cell-based. The following applies: table head names A549; for DC50: 6 h incubation, HiBiT-tagged SMARCA2, luminescence read-out, read-out: HiBit A549 SMARCA2 IP (nM) 6 h; for Emax: A549, 6 h incubation, Emax = amount of residual protein remaining in the cell following compound treatment. On the technique in general: The HiBiT peptide binds its large partner to form an active luciferase.

T1 sequence (P51531 whole entry): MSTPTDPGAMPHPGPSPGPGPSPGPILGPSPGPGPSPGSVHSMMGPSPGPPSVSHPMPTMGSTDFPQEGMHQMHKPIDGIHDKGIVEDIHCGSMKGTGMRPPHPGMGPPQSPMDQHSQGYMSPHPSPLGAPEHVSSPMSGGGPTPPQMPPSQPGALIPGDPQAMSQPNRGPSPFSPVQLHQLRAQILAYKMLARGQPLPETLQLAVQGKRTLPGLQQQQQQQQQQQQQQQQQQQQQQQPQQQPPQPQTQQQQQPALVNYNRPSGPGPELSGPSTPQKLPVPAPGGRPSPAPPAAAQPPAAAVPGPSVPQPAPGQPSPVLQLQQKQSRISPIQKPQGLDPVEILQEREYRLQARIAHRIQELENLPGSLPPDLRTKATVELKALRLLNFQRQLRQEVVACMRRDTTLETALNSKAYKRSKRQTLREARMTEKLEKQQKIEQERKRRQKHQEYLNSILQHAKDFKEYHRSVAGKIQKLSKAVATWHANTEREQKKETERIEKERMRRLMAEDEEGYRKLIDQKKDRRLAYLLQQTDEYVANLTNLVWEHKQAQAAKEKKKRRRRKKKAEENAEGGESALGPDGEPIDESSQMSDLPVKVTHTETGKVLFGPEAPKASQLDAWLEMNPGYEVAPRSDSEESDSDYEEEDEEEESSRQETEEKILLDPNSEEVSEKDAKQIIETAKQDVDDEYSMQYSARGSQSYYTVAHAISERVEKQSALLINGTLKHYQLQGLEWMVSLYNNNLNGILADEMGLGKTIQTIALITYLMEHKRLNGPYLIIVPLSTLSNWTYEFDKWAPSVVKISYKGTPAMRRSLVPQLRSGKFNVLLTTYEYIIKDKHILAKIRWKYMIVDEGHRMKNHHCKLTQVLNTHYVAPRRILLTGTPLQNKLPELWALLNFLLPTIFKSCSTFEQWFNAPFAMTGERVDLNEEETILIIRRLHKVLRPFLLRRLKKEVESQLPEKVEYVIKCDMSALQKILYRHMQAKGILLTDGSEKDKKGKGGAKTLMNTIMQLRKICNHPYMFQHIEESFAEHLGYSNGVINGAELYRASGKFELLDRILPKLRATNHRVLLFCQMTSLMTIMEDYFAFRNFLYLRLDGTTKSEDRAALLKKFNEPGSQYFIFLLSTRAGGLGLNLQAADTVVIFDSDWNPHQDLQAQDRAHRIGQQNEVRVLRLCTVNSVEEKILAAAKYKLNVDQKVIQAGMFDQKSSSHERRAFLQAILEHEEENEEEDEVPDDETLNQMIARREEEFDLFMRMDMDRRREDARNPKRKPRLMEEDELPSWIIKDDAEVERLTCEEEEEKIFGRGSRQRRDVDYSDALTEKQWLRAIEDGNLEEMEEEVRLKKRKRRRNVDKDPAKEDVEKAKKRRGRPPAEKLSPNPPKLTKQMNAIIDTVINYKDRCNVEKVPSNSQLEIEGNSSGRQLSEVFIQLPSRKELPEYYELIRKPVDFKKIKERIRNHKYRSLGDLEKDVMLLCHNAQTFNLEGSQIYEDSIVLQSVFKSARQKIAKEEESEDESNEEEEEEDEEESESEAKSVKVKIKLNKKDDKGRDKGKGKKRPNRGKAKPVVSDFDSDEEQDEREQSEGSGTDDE

As to `Nc1nnc(-c2ccccc2O)cc1N1CC2CCC(C1)N2c1cccc(OCCN2CCN(C(=O)CNC(=O)C3CCN(c4cccc5c4C(=O)N(C4CCC(=O)NC4=O)C5=O)CC3)CC2)c1` (racemic) [Example 18, rac-N-[2-[4-[2-[3-[3-[3-amino-6-(2-hydroxyphenyl)pyridazin-4-yl]-3,8-diazabicyclo[3.2.1]octan-8-yl]phenoxy]ethyl]piperazin-1-yl]-2-oxo-ethyl]-1-[2-(2,6-dioxo-3-piperidyl)-1,3-dioxo-isoindolin-4-yl]piperidine-4-carboxamide], the DC50 is 134 nM and the Emax was determined as 62%.
Take `Nc1nnc(-c2ccccc2O)cc1N1CC2CCC(C1)N2c1cccc(CN2CCC(C(=O)N3CCN(c4ccc(OC5CCC(=O)NC5=O)cc4)CC3)CC2)c1` (racemic) [Example 94, rac-3-[4-[4-[1-[[3-[3-[3-amino-6-(2-hydroxyphenyl)pyridazin-4-yl]-3,8-diazabicyclo[3.2.1]octan-8-yl]phenyl]methyl]piperidine-4-carbonyl]piperazin-1-yl]phenoxy]piperidine-2,6-dione]: the DC50 was 18 nM and the Emax stood at 48%.
`Nc1nnc(-c2ccccc2O)cc1OC1CCCN(c2ccc(N3CCN(CCCCCCCCCc4ccnc(CNc5cccc6c5C(=O)N(C5CCC(=O)NC5=O)C6=O)c4)CC3)cc2)C1` (stereo not drawn) [Example 139, 4-[[4-[9-[4-[4-[3-[3-amino-6-(2-hydroxyphenyl)pyridazin-4-yl]oxy-1-piperidyl]phenyl]piperazin-1-yl]nonyl]-2-pyridyl]methylamino]-2-(2,6-dioxo-3-piperidyl)isoindoline-1,3-dione]: the DC50 is 802 nM and the Emax was 62%.
Taken in the same sequence, the figures for `Nc1nnc(-c2ccccc2O)cc1N1CC(Oc2cccc(N3CCN(C(=O)CCC4CCN(c5ccc6c(c5)C(=O)N(C5CCC(=O)NC5=O)C6=O)CC4)CC3)c2)C1` (racemic) [Example 153, rac-5-[4-[3-[4-[3-[1-[3-amino-6-(2-hydroxyphenyl)pyridazin-4-yl]azetidin-3-yl]oxyphenyl]piperazin-1-yl]-3-oxo-propyl]-1-piperidyl]-2-(2,6-dioxo-3-piperidyl)isoindoline-1,3-dione] were 19 nM and 21%.
With `Nc1nnc(-c2ccccc2O)cc1N1CCN(c2ccccc2)C(C(=O)NCC2CCC(NC(=O)C3CCN(c4ccc5c(c4)C(=O)N(C4CCC(=O)NC4=O)C5=O)CC3)CC2)C1` (stereo not drawn) [Example 85, 4-[3-amino-6-(2-hydroxyphenyl)pyridazin-4-yl]-N-[[4-[[1-[2-(2,6-dioxopiperidin-3-yl)-1,3-dioxoisoindol-5-yl]piperidine-4-carbonyl]amino]cyclohexyl]methyl]-1-phenylpiperazine-2-carboxamide], the DC50 was found to be 92 nM and the Emax worked out at 43%.
Taken in the same sequence, the figures for `Nc1nnc(-c2ccccc2O)cc1N1CCC(C(=O)N2CC3(CCN(C(=O)CCC4CCN(c5ccc6c(c5)C(=O)N(C5CCC(=O)NC5=O)C6=O)CC4)C3)C2)(c2ccccc2)CC1` (stereo not drawn) [Example 188, 5-(4-(3-(2-(1-(3-amino-6-(2-hydroxyphenyl)pyridazin-4-yl)-4-phenylpiperidine-4-carbonyl)-2,6-diazaspiro[3.4]octan-6-yl)-3-oxopropyl)piperidin-1-yl)-2-(2,6-dioxopiperidin-3-yl)isoindoline-1,3-dione] were 193 nM and 50%.
For the molecule `Nc1nnc(-c2ccccc2O)cc1N1CC(Oc2cccc(N3CCN(C(=O)CN4CCC(c5ccc(NC6CCC(=O)NC6=O)cc5)CC4)CC3)c2)C1` (racemic) [Example 112, rac-3-[4-[1-[2-[4-[3-[1-[3-amino-6-(2-hydroxyphenyl)pyridazin-4-yl]azetidin-3-yl]oxyphenyl]piperazin-1-yl]-2-oxo-ethyl]-4-piperidyl]anilino]piperidine-2,6-dione], the DC50 was 101 nM and the Emax stood at 51%.
Regarding `Nc1nnc(-c2ccccc2O)cc1N1CC2CCC(C1)N2c1cccc(OCCN2CCN(C(=O)N3CCC(Oc4ccc5c(c4)C(=O)N(C4CCC(=O)NC4=O)C5=O)CC3)CC2)c1` (racemic) [Example 40, rac-5-[[1-[4-[2-[3-[3-[3-amino-6-(2-hydroxyphenyl)pyridazin-4-yl]-3,8-diazabicyclo[3.2.1]octan-8-yl]phenoxy]ethyl]piperazine-1-carbonyl]-4-piperidyl]oxy]-2-(2,6-dioxo-3-piperidyl)isoindoline-1,3-dione], the DC50 was determined as 22 nM and the Emax came out at 32%.
As for `Nc1nnc(-c2ccccc2O)cc1N1CC2CCC(C1)N2c1cccc(OCCN2CCN(C(=O)N3CCN(c4ccc5c(c4)C(=O)N(C4CCC(=O)NC4=O)C5=O)CC3)CC2)c1` (racemic) [Example 49, rac-5-[4-[4-[2-[3-[3-[3-amino-6-(2-hydroxyphenyl)pyridazin-4-yl]-3,8-diazabicyclo[3.2.1]octan-8-yl]phenoxy]ethyl]piperazine-1-carbonyl]piperazin-1-yl]-2-(2,6-dioxo-3-piperidyl)isoindoline-1,3-dione], the DC50 amounted to 4 nM and the Emax came to 39%.
Taken in the same sequence, the figures for `Nc1nnc(-c2ccccc2O)cc1N1CCC(CNC(=O)C2CCN(c3ccc4c(c3)C(=O)N(C3CCC(=O)NC3=O)C4=O)CC2)(c2ccccc2)CC1` (stereo not drawn) [Example 74, N-((1-(3-amino-6-(2-hydroxyphenyl)pyridazin-4-yl)-4-phenylpiperidin-4-yl)methyl)-1-(2-(2,6-dioxopiperidin-3-yl)-1,3-dioxoisoindolin-5-yl)piperidine-4-carboxamide] were 70 nM and 46%.
`Nc1nnc(-c2ccccc2O)cc1N1CCC(CNC(=O)CNc2cccc3c2C(=O)N(C2CCC(=O)NC2=O)C3=O)(c2ccccc2)CC1` (stereo not drawn) [Example 76, N-((1-(3-amino-6-(2-hydroxyphenyl)pyridazin-4-yl)-4-phenylpiperidin-4-yl)methyl)-2-((2-(2,6-dioxopiperidin-3-yl)-1,3-dioxoisoindolin-4-yl)amino)acetamide]: the DC50 worked out at 221 nM and the Emax came out at 57%.
`Nc1nnc(-c2ccccc2O)cc1N1CC2CCC(C1)N2c1cccc(OCCN2CCN(C(=O)CCCCCCCCNc3cccc4c3C(=O)N(C3CCC(=O)NC3=O)C4=O)CC2)c1` (stereo not drawn) [Example 6, 4-[[9-[4-[2-[3-[3-[3-amino-6-(2-hydroxyphenyl)pyridazin-4-yl]-3,8-diazabicyclo[3.2.1]octan-8-yl]phenoxy]ethyl]piperazin-1-yl]-9-oxo-nonyl]amino]-2-(2,6-dioxo-3-piperidyl)isoindoline-1,3-dione]: the DC50 is 334 nM and the Emax is 58%.
Taken in the same sequence, the figures for `Nc1nnc(-c2ccccc2O)cc1N1CC2CCC(C1)N2c1cccc(CN2CCN(C(=O)C3CCN(c4ccc5c(c4)C(=O)N(C4CCC(=O)NC4=O)C5=O)CC3)CC2)c1` (racemic) [Example 46, rac-5-[4-[4-[[3-[3-[3-Amino-6-(2-hydroxyphenyl)pyridazin-4-yl]-3,8-diazabicyclo[3.2.1]octan-8-yl]phenyl]methyl]piperazine-1-carbonyl]-1-piperidyl]-2-(2,6-dioxo-3-piperidyl)isoindoline-1,3-dione] were 12 nM and 24%.
Regarding `Nc1nnc(-c2ccccc2O)cc1N1CC2CCC(C1)N2c1cccc(OCCN2CCN(C(=O)CCC3CCN(c4cccc5c4C(=O)N(C4CCC(=O)NC4=O)C5=O)CC3)CC2)c1` (racemic) [Example 16, rac-4-[4-[3-[4-[2-[3-[3-[3-amino-6-(2-hydroxyphenyl)pyridazin-4-yl]-3,8-diazabicyclo[3.2.1]octan-8-yl]phenoxy]ethyl]piperazin-1-yl]-3-oxo-propyl]-1-piperidyl]-2-(2,6-dioxo-3-piperidyl)isoindoline-1,3-dione], the DC50 was found to be 46 nM and the maximum response (Emax) was 50%.
With `Nc1nnc(-c2ccccc2O)cc1N1CC2CCC(C1)N2c1cccc(OCCN2CCN(CCOC3CCN(c4ccc5c(c4)C(=O)N(C4CCC(=O)NC4=O)C5=O)CC3)CC2)c1` (racemic) [Example 35, rac-5-[4-[2-[4-[2-[3-[3-[3-amino-6-(2-hydroxyphenyl)pyridazin-4-yl]-3,8-diazabicyclo[3.2.1]octan-8-yl]phenoxy]ethyl]piperazin-1-yl]ethoxy]-1-piperidyl]-2-(2,6-dioxo-3-piperidyl)isoindoline-1,3-dione], the DC50 is 22 nM and the Emax was determined as 33%.
Take `Nc1nnc(-c2ccccc2O)cc1N1CC2CCC(C1)N2c1cccc(OCCN2CCN(C(=O)CC3CCN(c4ccc5c(c4)C(=O)N(C4CCC(=O)NC4=O)C5=O)CC3)CC2)c1` (racemic) [Example 33, rac-5-[4-[2-[4-[2-[3-[3-[3-amino-6-(2-hydroxyphenyl)pyridazin-4-yl]-3,8-diazabicyclo[3.2.1]octan-8-yl]phenoxy]ethyl]piperazin-1-yl]-2-oxo-ethyl]-1-piperidyl]-2-(2,6-dioxo-3-piperidyl)isoindoline-1,3-dione]: the DC50 was 15 nM and the Emax is 39%.
Taken in the same sequence, the figures for `CC(Oc1cccc2c1C(=O)N(C1CCC(=O)NC1=O)C2=O)c1cn(C2CN(C(=O)CCCCN3CCN(c4ccc(N5CCC[C@H](Oc6cc(-c7ccccc7O)nnc6N)C5)cc4)CC3)C2)nn1` (mixture of isomers) [Example 199, 2-(2,6-dioxo-3-piperidyl)-4-[1-[1-[1-[5-[4-[4-[rac-(3S)-3-[3-amino-6-(2-hydroxyphenyl)pyridazin-4-yl]oxy-1-piperidyl]phenyl]piperazin-1-yl]pentanoyl]azetidin-3-yl]triazol-4-yl]ethoxy]isoindoline-1,3-dione] were 107 nM and 62%.
Taken in the same sequence, the figures for `Nc1nnc(-c2ccccc2O)cc1N1CC2CCC(C1)N2c1cccc(CN2CCN(C(=O)CN3CCC(c4ccc(OC5CCC(=O)NC5=O)cc4)CC3)CC2)c1` (racemic) [Example 148, rac-3-[4-[1-[2-[4-[[3-[3-[3-Amino-6-(2-hydroxyphenyl)pyridazin-4-yl]-3,8-diazabicyclo[3.2.1]octan-8-yl]phenyl]methyl]piperazin-1-yl]-2-oxo-ethyl]-4-piperidyl]phenoxy]piperidine-2,6-dione] were 25 nM and 33%.

Broadly, the Emax is the greatest response seen or fitted, relative to the assay's reference.

For the origin of these results see patent publication US20230024096A1, “BIFUNCTIONAL COMPOUNDS FOR THE TREATMENT OF CANCER” (Hoffmann-La Roche Inc., priority 2019, published 2023).
